Assay results from PubChem BioAssay AID1963980 (Molecular Pharmacology Branch, DTP, NCI, 2024).
Several values for one entry are separate records, joined by “and”; a condition that tells them apart may be missing. Equal entries are not always repeated. Blank lines part the entries; values can stand above or below the molecule they belong to.

System: 475296-252-R-J1-PDC spheroid viability
Experiment: Anticancer human tumor 475296-252-R-J1-PDC patient-derived rectal carcinoma cell line growth inhibition [PI3K]
Conditions: spheroids with HUVEC and MSC; for viability, T/C: stronger effect = lower value
Text: Combinatorial screen of targeted agents with the PI3K inhibitors inavolisib, alpelisib, duvelisib, and copanlisib in multi-cell type tumor spheroids
A high-throughput screen of multi-cell type tumor spheroids was designed to identify active combinations of targeted small molecules and PI3K pathway inhibitors. Complex spheroids include a stromal component modeled by human endothelial cells (HUVEC) and fibroblasts modeled by human mesenchymal stem cells (MSCs). The concentration ranges selected for each drug and investigational agent were based upon clinically achievable concentrations if the clinical Cmax of the agent was known.
Compounds. The drugs and investigational agents: inavolisib (NSC800729), alpelisib (NSC765974), duvelisib (NSC772469), copanlisib (NSC816437), ipatasertib (NSC767898), afuresertib (NSC778305), talazoparib (NSC767125), sapanisertib (NSC764658), selumetinib (NSC741078), tovorafenib (DAY101, NSC766906), vemurafenib (NSC761431), ravoxertinib (NSC781343), sotorasib (NSC818433), MRTX1133 (NSC 836407), abemaciclib (NSC 768073), palbociclib (NSC758247), venetoclax (NSC 766270), SY5609 (NSC837396), enzalutamide (NSC755605), and darolutamide (NSC825331), were obtained from the National Cancer Institute (NCI) Developmental Therapeutics Program Chemical Repository. The FDA-approved anticancer drug set is available from the NCI Developmental Therapeutics Program. […] The stock solutions were prepared in dimethyl sulfoxide (DMSO, Sigma-Aldrich, St. Louis, MO, cat. D2650) at 800-fold the tested concentration and stored at -70 degrees C prior to their use. All drugs and investigational agents were tested over a range starting from a high concentration at or near the clinical Cmax and decreasing in half-log increments. If the clinical Cmax for an agent had not been determined, the highest concentration tested was 10 microM.
Cell Culture. All cells were maintained in an incubator at 37 degrees C and 5% CO2 with 95% humidity. The PDC lines were cultured according to standard operating procedures established by the NCI PDMR (https://pdmr.cancer.gov/sops/default.htm). All PDCs were thawed and cultured in Matrigel-coated flasks prepared with a working solution of 1X Ham's F-12 nutrient mix, without supplementation (Invitrogen, Waltham, MA, cat. 11765054), 100 U/mL penicillin-streptomycin (Invitrogen, cat. 15140122), and 2.5% Matrigel (Corning Inc., Corning, NY, cat. 354248) for the first three passages. The 354836-022-R-J1-PDC, 475296-252-R-J1-PDC, and 997726-040-R-J2-PDC lines were cultured in 6A media, which includes advanced DMEM/F-12 (Thermo Fisher Scientific, cat. 12634028), 10 mM HEPES (Thermo Fisher Scientific, cat. 15630080), 1X GlutaMAX supplement (Thermo Fisher Scientific, cat. 35050061), 0.1 mg/mL primocin (InvivoGen, San Diego, CA, cat. ant-pm-2), 10% defined fetal bovine serum, heat inactivated (HyClone Laboratories Inc., Logan, UT, cat. SH30070.03HI), 50% L-WRN conditioned media (ATCC, cat. CRL-3276), 1.25 mM N-Acetyl-L-cysteine (Sigma-Aldrich, cat. A9165), 10 mM nicotinamide (Sigma-Aldrich, cat. N0636), 1X B-27 supplement (Thermo Fisher Scientific, cat. 17504044), 1X N-2 supplement (Thermo Fisher Scientific, cat. 17502048), and 10 microM Y-27632 dihydrochloride (Tocris Bioscience, Bristol, United Kingdom, cat. 1254). The 624824-186-R-J2-PDC line was cultured in 6C/Colon 1B media, which includes all 6A media components plus 50 ng/mL human EGF recombinant protein (Thermo Fisher Scientific, cat. PHG0311). […]
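Also: spheroids exposed to agents for seven days before readout.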

IC50 (curve of compound): 8.36 µM and > 10 µM
Compound: C#Cc1c(F)ccc2cc(O)cc(-c3ncc4c(N5CC6CCC(C5)N6)nc(OCC56CCCN5CC(F)C6)nc4c3F)c12 (stereo not given)
viability, T/C (compound 0.0316 µM): 95.9% [middle of 4 runs] | viability, T/C (compound 0.1 µM): 90.9% [middle of 4 runs] | viability, T/C (compound 0.316 µM): 84.4% [middle of 4 runs] | viability, T/C (compound 1 µM): 70.1% [middle of 4 runs] | viability, T/C (compound 10 µM): 56.8% [middle of 4 runs]

IC50 (curve of compound): > 10 µM
Compound: C=CC(=O)N1CCN(c2nc(=O)n(-c3c(C)ccnc3C(C)C)c3nc(-c4c(O)cccc4F)c(F)cc23)C(C)C1 (stereo not given)
viability, T/C (compound 0.1 µM): 98.7% [middle of 4 runs] | viability, T/C (compound 0.316 µM): 97% [middle of 4 runs] | viability, T/C (compound 1 µM): 105% [middle of 4 runs] | viability, T/C (compound 3.16 µM): 110% [middle of 4 runs] | viability, T/C (compound 10 µM): 110% [middle of 4 runs]

IC50 (curve of compound): > 10 µM
Compound: CNC(=O)c1ccc(N2C(=S)N(c3ccc(C#N)c(C(F)(F)F)c3)C(=O)C2(C)C)cc1F
viability, T/C (compound 0.1 µM): 100% [middle of 4 runs] | viability, T/C (compound 0.316 µM): 96.5% [middle of 4 runs] | viability, T/C (compound 1 µM): 99.5% [middle of 4 runs] | viability, T/C (compound 3.16 µM): 102% [middle of 4 runs] | viability, T/C (compound 10 µM): 98.3% [middle of 4 runs]

IC50 (curve of first compound, second compound 0.00316 µM): > 3 µM | IC50 (curve of first compound, second compound 0.01 µM): > 3 µM | IC50 (curve of first compound, second compound 0.0316 µM): > 3 µM | IC50 (curve of first compound, second compound 0.1 µM): 1.21 µM | IC50 (curve of first compound, second compound 0.316 µM): 0.415 µM | IC50 (curve of first compound, second compound 1 µM): 0.142 µM
Compound: Cn1cnc2c(F)c(Nc3ccc(Br)cc3Cl)c(C(=O)NOCCO)cc21 + CC(Nc1ccc2c(c1)OCCn1cc(N3C(=O)OCC3C(F)F)nc1-2)C(N)=O
viability, T/C (second compound 0.00316 µM, first compound 0.00949 µM): 96.4% | viability, T/C (second compound 0.00316 µM, first compound 0.03 µM): 93.1% | viability, T/C (second compound 0.00316 µM, first compound 0.0949 µM): 89% | viability, T/C (second compound 0.00316 µM, first compound 0.3 µM): 74.8% | viability, T/C (second compound 0.00316 µM, first compound 0.949 µM): 74.8% | viability, T/C (second compound 0.00316 µM, first compound 3 µM): 60.8% | viability, T/C (second compound 0.01 µM, first compound 0.00949 µM): 104% | viability, T/C (second compound 0.01 µM, first compound 0.03 µM): 90.9% | viability, T/C (second compound 0.01 µM, first compound 0.0949 µM): 90.4% | viability, T/C (second compound 0.01 µM, first compound 0.3 µM): 65.2% | viability, T/C (second compound 0.01 µM, first compound 0.949 µM): 72.8% | viability, T/C (second compound 0.01 µM, first compound 3 µM): 61.4% | viability, T/C (second compound 0.0316 µM, first compound 0.00949 µM): 95.4% | viability, T/C (second compound 0.0316 µM, first compound 0.03 µM): 96% | viability, T/C (second compound 0.0316 µM, first compound 0.0949 µM): 84.8% | viability, T/C (second compound 0.0316 µM, first compound 0.3 µM): 77.3% | viability, T/C (second compound 0.0316 µM, first compound 0.949 µM): 67.8% | viability, T/C (second compound 0.0316 µM, first compound 3 µM): 52.3% | viability, T/C (second compound 0.1 µM, first compound 0.00949 µM): 78.8% | viability, T/C (second compound 0.1 µM, first compound 0.03 µM): 82.9% | viability, T/C (second compound 0.1 µM, first compound 0.0949 µM): 71.5% | viability, T/C (second compound 0.1 µM, first compound 0.3 µM): 65% | viability, T/C (second compound 0.1 µM, first compound 0.949 µM): 53% | viability, T/C (second compound 0.1 µM, first compound 3 µM): 40.4% | viability, T/C (second compound 0.316 µM, first compound 0.00949 µM): 76.5% | viability, T/C (second compound 0.316 µM, first compound 0.03 µM): 89.5% | viability, T/C (second compound 0.316 µM, first compound 0.0949 µM): 66% | viability, T/C (second compound 0.316 µM, first compound 0.3 µM): 54.8% | viability, T/C (second compound 0.316 µM, first compound 0.949 µM): 38.7% | viability, T/C (second compound 0.316 µM, first compound 3 µM): 23.6% | viability, T/C (second compound 1 µM, first compound 0.00949 µM): 84.5% | viability, T/C (second compound 1 µM, first compound 0.03 µM): 70.2% | viability, T/C (second compound 1 µM, first compound 0.0949 µM): 57% | viability, T/C (second compound 1 µM, first compound 0.3 µM): 38.4% | viability, T/C (second compound 1 µM, first compound 0.949 µM): 25.4% | viability, T/C (second compound 1 µM, first compound 3 µM): 13.5%
